Results as given in US20120316199A1, “COMPOSITIONS AND METHODS FOR TREATING, CONTROLLING, REDUCING, OR AMELIORATING INFLAMMATORY PAIN” (priority 2011, published 2012).

Tested on: intraocular pressure (IOP)
Assay: Intraocular pressure in New Zealand White rabbits, topical dosing four times daily
Assay type: in vivo
Conditions: untreated left eyes
Procedure: On Days 1-31, animals received daily topical doses of the appropriate test article into the right eye. Animals were dosed four times per day, with doses administered 2 hours apart. Doses were administered using a calibrated 50-μL pipette. The eyelids were held close for 10 seconds immediately following dosing. The time of each dose administration was recorded.
Intraocular pressure (“IOP”) was determined for both eyes of each animal on Days 3, 5, 10, 12, 16, 18, 22, 24, 26, 30, and 32. IOP was evaluated with a Medtronic Solan, Model 30 classic pneumatonometer. Proparacaine hydrochloride 0.5% (1 drop) was delivered to each eye prior to IOP measurement. IOP was measured on Monday. Wednesday, and Friday of each week. A two-point diurnal curve was established: IOP was recorded at 8 a.m. and 12 p.m. on Day 3, and at 8 a.m. and 2 p.m. on later days, with a ±1 hour range for each of these times. The time of the measurements was recorded.
Descriptive statistics were prepared for IOP data of each treatment group (left and right eyes separately) at each measurement interval. The statistics included the number of observations (“N”) mean, standard deviation (“STD”), and standard error (“SEM”). Statistical analyses were conducted on IOP results using Statistical Analysis Systems (SAS Institute. Inc., Cary, N.C. V8.0). Parameters were evaluated using analysis of variance/GLM Procedure followed by Tukey's Standardized Range Test (Tukey, 1985) for post hoc comparisons of group means. The level of significance was set at a probability of p<0.05 for all statistical procedures. Group IOP means were compared at each interval, with left and right eyes compared separately.

Cc1ccc2c(NC[C@](O)(CC(C)(C)c3cc(F)cc4c3OCC4)C(F)(F)F)cccc2n1 [BOL-303242-X, mapracorat]
Intraocular Pressure, MEAN (A.M. readings, Day 16, 1 mg/g (Group D)): 21.6 mmHg
Intraocular Pressure, MEAN (A.M. readings, Day 16, 5 mg/g (Group C)): 23.4 mmHg
Intraocular Pressure, MEAN (A.M. readings, Day 16, 10 mg/g (Group B)): 22.9 mmHg
Intraocular Pressure, MEAN (A.M. readings, Day 18, 1 mg/g (Group D)): 23.3 mmHg
Intraocular Pressure, MEAN (A.M. readings, Day 18, 5 mg/g (Group C)): 21.9 mmHg
Intraocular Pressure, MEAN (A.M. readings, Day 18, 10 mg/g (Group B)): 21.2 mmHg
Intraocular Pressure, MEAN (A.M. readings, Day 22, 1 mg/g (Group D)): 22.4 mmHg
Intraocular Pressure, MEAN (A.M. readings, Day 22, 5 mg/g (Group C)): 21.6 mmHg
Intraocular Pressure, MEAN (A.M. readings, Day 22, 10 mg/g (Group B)): 21.8 mmHg
Intraocular Pressure, MEAN (A.M. readings, Day 24, 1 mg/g (Group D)): 22.4 mmHg
Intraocular Pressure, MEAN (A.M. readings, Day 24, 5 mg/g (Group C)): 22.1 mmHg
Intraocular Pressure, MEAN (A.M. readings, Day 24, 10 mg/g (Group B)): 20.2 mmHg
Intraocular Pressure, MEAN (A.M. readings, Day 26, 1 mg/g (Group D)): 22.9 mmHg
Intraocular Pressure, MEAN (A.M. readings, Day 26, 5 mg/g (Group C)): 21.7 mmHg
Intraocular Pressure, MEAN (A.M. readings, Day 26, 10 mg/g (Group B)): 21.7 mmHg
Intraocular Pressure, MEAN (A.M. readings, Day 30, 1 mg/g (Group D)): 23.4 mmHg
Intraocular Pressure, MEAN (A.M. readings, Day 30, 5 mg/g (Group C)): 22.6 mmHg
Intraocular Pressure, MEAN (A.M. readings, Day 30, 10 mg/g (Group B)): 22.7 mmHg
Intraocular Pressure, MEAN (A.M. readings, Day 32, 1 mg/g (Group D)): 24.1 mmHg
Intraocular Pressure, MEAN (A.M. readings, Day 32, 5 mg/g (Group C)): 23.1 mmHg
Intraocular Pressure, MEAN (A.M. readings, Day 32, 10 mg/g (Group B)): 22.9 mmHg
Intraocular Pressure, MEAN (A.M. readings, Pre-Study, 1 mg/g (Group D)): 23.9 mmHg
Intraocular Pressure, MEAN (A.M. readings, Pre-Study, 5 mg/g (Group C)): 24.2 mmHg
Intraocular Pressure, MEAN (A.M. readings, Pre-Study, 10 mg/g (Group B)): 23.8 mmHg
Intraocular Pressure, MEAN (P.M. readings, Day 3, 1 mg/g (Group D)): 25.0 mmHg
Intraocular Pressure, MEAN (P.M. readings, Day 3, 5 mg/g (Group C)): 23.9 mmHg
Intraocular Pressure, MEAN (P.M. readings, Day 3, 10 mg/g (Group B)): 23.3 mmHg
Intraocular Pressure, MEAN (P.M. readings, Day 5, 1 mg/g (Group D)): 24.7 mmHg
Intraocular Pressure, MEAN (P.M. readings, Day 5, 5 mg/g (Group C)): 24.8 mmHg
Intraocular Pressure, MEAN (P.M. readings, Day 5, 10 mg/g (Group B)): 25.2 mmHg
Intraocular Pressure, MEAN (P.M. readings, Day 10, 1 mg/g (Group D)): 24.9 mmHg
Intraocular Pressure, MEAN (P.M. readings, Day 10, 5 mg/g (Group C)): 24.6 mmHg
Intraocular Pressure, MEAN (P.M. readings, Day 10, 10 mg/g (Group B)): 23.5 mmHg
Intraocular Pressure, MEAN (P.M. readings, Day 12, 1 mg/g (Group D)): 23.7 mmHg
Intraocular Pressure, MEAN (P.M. readings, Day 12, 5 mg/g (Group C)): 23.3 mmHg
Intraocular Pressure, MEAN (P.M. readings, Day 12, 10 mg/g (Group B)): 24.1 mmHg
Intraocular Pressure, MEAN (P.M. readings, Day 16, 1 mg/g (Group D)): 21.9 mmHg
Intraocular Pressure, MEAN (P.M. readings, Day 16, 5 mg/g (Group C)): 20.4 mmHg
Intraocular Pressure, MEAN (P.M. readings, Day 16, 10 mg/g (Group B)): 21.4 mmHg
Intraocular Pressure, MEAN (P.M. readings, Day 18, 1 mg/g (Group D)): 22.7 mmHg
Intraocular Pressure, MEAN (P.M. readings, Day 18, 5 mg/g (Group C)): 21.9 mmHg
Intraocular Pressure, MEAN (P.M. readings, Day 18, 10 mg/g (Group B)): 22.1 mmHg
Intraocular Pressure, MEAN (P.M. readings, Day 22, 1 mg/g (Group D)): 22.1 mmHg
Intraocular Pressure, MEAN (P.M. readings, Day 22, 5 mg/g (Group C)): 22.1 mmHg
Intraocular Pressure, MEAN (P.M. readings, Day 22, 10 mg/g (Group B)): 22.6 mmHg
Intraocular Pressure, MEAN (P.M. readings, Day 24, 1 mg/g (Group D)): 22.9 mmHg
Intraocular Pressure, MEAN (P.M. readings, Day 24, 5 mg/g (Group C)): 22.2 mmHg
Intraocular Pressure, MEAN (P.M. readings, Day 24, 10 mg/g (Group B)): 22.8 mmHg
Intraocular Pressure, MEAN (P.M. readings, Day 26, 1 mg/g (Group D)): 22.1 mmHg
Intraocular Pressure, MEAN (P.M. readings, Day 26, 5 mg/g (Group C)): 22.3 mmHg
Intraocular Pressure, MEAN (P.M. readings, Day 26, 10 mg/g (Group B)): 21.4 mmHg
Intraocular Pressure, MEAN (P.M. readings, Day 30, 10 mg/g (Group B)): 21.7 mmHg
